According to patent publication US20250143306A1, “COMBINATION FOR IMPROVING PLANT GROWTH AND/OR YIELD, FORMULATION AND METHOD FOR INCREASING PLANT GROWTH, STRESS RESISTANCE, AND YIELDS, AND USE THEREOF” (INSTITUTE OF EXPERIMENTAL BOTANY CAS CR, V.V.I., priority 2022, published 2025):
Marks after values point to notes of the source that are not given here.

What was measured:
Format in all cases: in vivo
winter wheat plants = assay: Root dry weight of winter wheat, method of testing the synergistically effective amounts of MTU and PCA (optimal conditions)
Experimental: The synergistically effective amounts of MTU and pyroglutamic acid (PCA) were determined by the method of determining the root growth of winter wheat plants. […].
As a first control, MTU was applied to another group of the winter wheat plants at the following amounts: 1, 2, 4 and 8 mg/liter of the composition.
As a second control, PCA was applied to another group of the winter wheat plants at the amount of 200 mg/liter of the composition.
As a negative control, another group of the winter wheat plants was applied only water in the same amount as the compositions applied to the above-described groups.
The plants were then grown at 20° C. under natural light for a period of 45 days. The root dry weight (RDW) of at least 30 plants was measured 45 days after the plants had been sown for each group. RDW was recorded after drying the plants at 70° C. for 2 days.
The relative increase in RDW was calculated as % of control (Table 1). The % of control for combinations containing MTU: PCA in ratios 1:200, 2:200 and 4:200 was higher than the sum of % of control of only PCA group (+8.8%) with the MTU group (1, 2 or 4 mg).

[1] = system: wheat (Triticum aestivum) cv. Balitus; assay: Root and shoot dry weight and total chlorophyll content of wheat under drought stress conditions (Example 2)
Experimental: To investigate the effect of the combinations on the weight parameters, and the total content of chlorophyll, seeds of wheat (Triticum aestivum) cv. Balitus were sown in a hydroponic growing system (Araponics, Liege, Belgium) using Hoagland's solution (control). Twenty days after sowing plants (except for control plants) were sprayed by either MTU (10 μM) or by nitrogen utilization enhancers alone or with a combination of MTU (10 μM) and nitrogen utilization enhancers. The plants were grown in a glasshouse at 20-28° C. under a combination of natural and artificial light. Since the treatment (20 days after sowing), the plants received low water doses. […] The root dry weight (RDW), shoot dry weight (SDW), and total chlorophyll content (TCC) of at least 25 plants were measured at the end of the experiment—45 days after the plants had been sown. RDW and SDW were recorded after drying the plants at 70° C. for 2 days. The chlorophyll content of each plant was measured by SPAD meter reading at the end of the experiment and TCC was calculated as SPAD value per SDW.

[2] = system: sunflower (Helianthus sp. L.); assay: Seed yield of field-grown sunflower (Example 6); settings: Hungary 2020, MTU 2 mg/L at 300 L/ha, pyroglutamic acid 50 g/ha
Experimental: Seeds of sunflower (Helianthus sp. L.) were sown in Hungary in 2020 in accordance with the Good Experimental Practice criteria. MTU was applied by spraying at a concentration of 10 μM (2 mg/L) and a dosage of 300 L/ha. Pyroglutamic acid was used at 50 g/ha, applied at a dosage of 300 L/ha in a water solution.

[3] = system: Winter wheat variety Barrel; assay: Nitrogen content in grains of field-grown winter wheat, Kjeldahl method (Example 4); settings: MTU 0.4 g/ha, pyroglutamic acid 40 g/ha
Experimental: (§1) The field experiments were done in 2019 in the UK and they were performed in accordance with the Good Experimental Practice criteria. Winter wheat variety Barrel was used. MTU was applied by spraying at a concentration of 10 μM (2 mg/L) and a dosage of 200 L/ha (0.4 g/ha of MTU). Pyroglutamic acid was used at 40 g/ha, applied at a dose of 200 l/ha in a water solution.
Wheat grains used to make bread require a grain nitrogen content of 2.1% (w/w) or higher. Grains from each sample treatment from the experiment described in Example 3 were analyzed for nitrogen content. The analysis was done using a Kjeldahl method (Kjeldahl, J. (1883) “New method for the determination of nitrogen in organic substances), Zeitschrift für analytische Chemie, 22 (1): 366-383.

[4] = system: Oilseed rape variety Elgar (2018) and Elizze (2019); assay: Grain yield of field-grown oilseed rape (Example 5); settings: MTU 0.4 g/ha, pyroglutamic acid 40 g/ha
Experimental: Oilseed rape variety Elgar (2018) and Elizze (2019) were grown in the UK in the years 2018 and 2019. Experiments were performed in accordance with the Good Experimental Practice criteria. MTU was applied by spraying at a concentration of 10 μM (2 mg/L) and a dosage of 200 L/ha (0.4 g/ha of MTU). Pyroglutamic acid was used at 40 g/ha, applied at a dosage of 200 L/ha in a water solution.

[5] = system: wheat (Triticum aestivum) cv. Balitus; assay: Root and shoot dry weight and leaf nitrogen content of hydroponically grown wheat under optimal conditions (Example 1)
Experimental: To investigate the effect of the combinations on the weight parameters, the seeds of wheat (Triticum aestivum) cv. Balitus were sown in a hydroponic growing system (Araponics, Liege, Belgium) using Hoagland's solution (control). Twenty days after sowing, plants (except for control plants) were sprayed by aqueous solution of either MTU (10 μM) or by a nitrogen utilization enhancer alone or by a combination of MTU (10 μM) with the nitrogen utilization enhancer. The plants were grown in the Czech Republic in a glasshouse at 16-25° C. under natural and artificial light during the winter period. The root dry weight (RDW), shoot dry weight (SDW) and the nitrogen content in the leaves of at least 30 plants were measured 45 days after the plants had been sown. RDW and SDW were recorded after drying the plants at 70° C. for 2 days.

[6] = system: Winter wheat variety Barrel; assay: Grain yield of field-grown winter wheat (Example 3); settings: MTU 0.4 g/ha, pyroglutamic acid 40 g/ha, UK 2019
Experimental: as §1

[7] = UK 2018, application at BBCH 13
[8] = UK 2018, application at BBCH 65
[9] = UK 2019, application at BBCH 65
[10] = UK 2019, application at BBCH 70
[11] = 200 mg in 1 liter of composition

`COCCNC(=O)Nc1cnns1` [MTU, 1-(2-methoxyethyl)-3-(1,2,3-thiadiazol-5yl)urea] was tested, and the “RDW % of control” value (winter wheat plants; 1 mg in 1 liter of composition) was “+5.5%”, the “RDW (root dry weight)” value (winter wheat plants; 1 mg in 1 liter of composition) was 0.96 g and the “RDW % of control” value (winter wheat plants; 2 mg in 1 liter of composition) was “+7.7%”. For the same compound, the “RDW (root dry weight)” value (winter wheat plants; 2 mg in 1 liter of composition) was 0.98 g, the “RDW % of control” value (winter wheat plants; 4 mg in 1 liter of composition) was “+15.4%” and the “RDW (root dry weight)” value (winter wheat plants; 4 mg in 1 liter of composition) was 1.05 g. For the same compound, the “RDW % of control” value (winter wheat plants; 8 mg in 1 liter of composition) was “+18.1%”, the “RDW (root dry weight)” value (winter wheat plants; 8 mg in 1 liter of composition) was 1.07 g and the “RDW (root dry weight)” value ([1]; concentration 2 mg/L) was 0.74 g. For the same compound, the “SDW (shoot dry weight)” value ([1]; concentration 2 mg/L) was 1.28 g, the “Yield % of control” value ([2]; application at BBCH 16-18) was “+12.0%” and the “Yield (seed)” value ([2]; application at BBCH 16-18) was 3.08 t/ha. The “Yield % of control” value ([2]; application at BBCH 55) was “+4.7%”, the “Yield (seed)” value ([2]; application at BBCH 55) was 2.88 t/ha and the “Nitrogen content % of control” value ([3]; application at BBCH 32) was −9.5%. The “Nitrogen content (%) of grains” value ([3]; application at BBCH 32) was 1.82%, the “Nitrogen content % of control” value ([3]; application at BBCH 39) was −2.0% and the “Nitrogen content (%) of grains” value ([3]; application at BBCH 39) was 1.97%. For the same compound, the “Nitrogen content % of control” value ([3]; application at BBCH 50-55) was −10.0%, the “Nitrogen content (%) of grains” value ([3]; application at BBCH 50-55) was 1.81% and the “Yield % of control” value [4, 7] was “+2.9%”. For the same compound, the “Yield (grain)” value [4, 7] was 3.90 t/ha, the “Yield % of control” value [4, 8] was “+4.8%” and the “Yield (grain)” value [4, 8] was 4.61 t/ha. For the same compound, the “Yield % of control” value [4, 9] was “+6.2%”, the “Yield (grain)” value [4, 9] was 3.93 t/ha and the “Yield % of control” value [4, 10] was “+3.8%”. For the same compound, the “Yield (grain)” value [4, 10] was 3.84 t/ha, the “Nitrogen content in the leaves” value ([5]; concentration 2 mg/L) was 4.47 weight % and the “RDW % of control” value ([5]; concentration 2 mg/L) was “+3.8%”. For the same compound, the “RDW (root dry weight)” value ([5]; concentration 2 mg/L) was 0.83 g, the “SDW % of control” value ([5]; concentration 2 mg/L) was “+3.9%” and the “SDW (shoot dry weight)” value ([5]; concentration 2 mg/L) was 1.58 g. The “Yield % of control” value ([6]; application at BBCH 32) was “+2.4%”, the “Yield (grain)” value ([6]; application at BBCH 32) was 10.225 t/ha and the “Yield % of control” value ([6]; application at BBCH 39) was “+2.4%”. For the same compound, the “Yield (grain)” value ([6]; application at BBCH 39) was 10.230 t/ha, the “Yield % of control” value ([6]; application at BBCH 50-55) was “+0.5%” and the “Yield (grain)” value ([6]; application at BBCH 50-55) was 10.033 t/ha.

`O=C1CC[C@@H](C(=O)O)N1` [Pyroglutamic acid, pyroglutamic acid] was tested, and the “RDW % of control” value (winter wheat plants; [11]) was “+8.8%”, the “RDW (root dry weight)” value (winter wheat plants; [11]) was 0.99 g and the “RDW % of control” value ([1]; concentration 200 mg/L) was “+11.9%”. The “RDW (root dry weight)” value ([1]; concentration 200 mg/L) was 0.75 g, the “SDW % of control” value ([1]; concentration 200 mg/L) was −1.6% and the “SDW (shoot dry weight)” value ([1]; concentration 200 mg/L) was 1.2 g. For the same compound, the “RDW % of control” value ([1]; concentration 400 mg/L) was “+14.9%”, the “RDW (root dry weight)” value ([1]; concentration 400 mg/L) was 0.77 g and the “SDW % of control” value ([1]; concentration 400 mg/L) was “+0.8%”. The “SDW (shoot dry weight)” value ([1]; concentration 400 mg/L) was 1.23 g, the “Yield % of control” value ([2]; application at BBCH 16-18) was “+5.0%” and the “Yield (seed)” value ([2]; application at BBCH 16-18) was 2.89 t/ha. For the same compound, the “Yield % of control” value ([2]; application at BBCH 55) was “+6.3%”, the “Yield (seed)” value ([2]; application at BBCH 55) was 2.92 t/ha and the “Nitrogen content % of control” value ([3]; application at BBCH 32) was −7.0%. The “Nitrogen content (%) of grains” value ([3]; application at BBCH 32) was 1.87%, the “Nitrogen content % of control” value ([3]; application at BBCH 39) was −5.5% and the “Nitrogen content (%) of grains” value ([3]; application at BBCH 39) was 1.90%. For the same compound, the “Nitrogen content % of control” value ([3]; application at BBCH 50-55) was −10.0%, the “Nitrogen content (%) of grains” value ([3]; application at BBCH 50-55) was 1.81% and the “Yield % of control” value [4, 7] was “+5.0%”. For the same compound, the “Yield (grain)” value [4, 7] was 3.97* t/ha, the “Yield % of control” value [4, 8] was “+23.9%” and the “Yield (grain)” value [4, 8] was 5.45* t/ha. For the same compound, the “Yield % of control” value [4, 9] was “+3.5%”, the “Yield (grain)” value [4, 9] was 3.83 t/ha and the “Yield % of control” value [4, 10] was “+5.4%”. For the same compound, the “Yield (grain)” value [4, 10] was 3.90 t/ha, the “RDW % of control” value ([5]; concentration 200 mg/L) was “+6.3%” and the “RDW (root dry weight)” value ([5]; concentration 200 mg/L) was 0.85 g. For the same compound, the “SDW % of control” value ([5]; concentration 200 mg/L) was “+6.8%”, the “SDW (shoot dry weight)” value ([5]; concentration 200 mg/L) was 1.63 g and the “Nitrogen content in the leaves” value ([5]; concentration 400 mg/L) was 4.65 weight %. For the same compound, the “RDW % of control” value ([5]; concentration 400 mg/L) was “+13.8%”, the “RDW (root dry weight)” value ([5]; concentration 400 mg/L) was 0.91 g and the “SDW % of control” value ([5]; concentration 400 mg/L) was “+10.5%”. The “SDW (shoot dry weight)” value ([5]; concentration 400 mg/L) was 1.68 g, the “Yield % of control” value ([6]; application at BBCH 32) was “+1.8%” and the “Yield (grain)” value ([6]; application at BBCH 32) was 10.167 t/ha. The “Yield % of control” value ([6]; application at BBCH 39) was “+2.0%”, the “Yield (grain)” value ([6]; application at BBCH 39) was 10.183 t/ha and the “Yield % of control” value ([6]; application at BBCH 50-55) was “+2.6%”. The “Yield (grain)” value ([6]; application at BBCH 50-55) was 10.241 t/ha.
